Source: patent US20060083711A1, “Methods and products related to the intracellular delivery of polysaccharides” (Massachusetts Institute of Technology, priority 2004, published 2006)
Several values for one entry are separate records, joined by “and”; a condition that tells them apart may be missing. Equal entries are not always repeated. Entries after “also recorded” stand apart in the source; their conditions may differ. Blank lines part the entries; values can stand above or below the molecule they belong to.

Tests used:
[1] = molecular target: FGFR1c on PC-3 cells (human) (UniProt P11362); test: cell-based or functional assay
PC-3 cells = test: PC-3 proliferation assay (whole cell number); type: cell-based, human; conditions: for effect of kinase inhibitor on heparin-mediated growth inhibition: 50 μM LY294002, 20 μM PD98059, 20 μM U0126, 1 μM SB203580, heparin 500 ng/ml
Protocol: PC-3 cells were grown until confluence in 75 cm^2 flasks. Each flask was washed with 20 ml PBS, and treated with 3 ml trypsin-EDTA at 37° C. for 3-5 minutes, until cells detached. Cells were centrifuged for 3 min at 195×g. The supernatant was aspirated, and the cells were resuspended in 10 ml media. The cell density was measured using an electronic cell counter, and the suspension was diluted to 50,000 cells/ml. The suspension was plated 1 ml/well into 24-well tissue culture plates. After a 24 hour incubation in a 5% CO2, 37° C. humidified incubator, the media was aspirated, the wells were washed with serum free media, and the cells were supplemented with media containing 0.1% FBS and incubated for 24 hours. Cells were sequentially treated with antibodies, kinase inhibitors, heparin, and FGF2. Antibodies to FGF2, FGFR1, or FGFR3 were added to yield a final dilution of 1:100. Kinase inhibitors were added sufficient to yield final concentrations of 50 μM LY294002, 20 μM PD98059, 1 μM SB203580, and 20 μM U0126. Heparin was added at 500 ng/ml unless otherwise noted. To produce heparin digests, heparin was treated with PBS, hepI, or hepIII for 30 minutes, and boiled for 30 minutes. prior to addition to cells. Digestion was verified by UV spectroscopy at 232 nm. FGF2 was added at 100 ng/ml unless otherwise specified. Cells were then incubated for 72 hours. Wells were then washed twice with PBS and treated with 0.5 ml trypsin-EDTA/well and incubated for 10 minutes at 37° C. Whole cell number was determined using an electronic cell counter. Data were averaged over three experiments, each consisting of four wells per condition.
PC-3 cells were grown until confluence in 75 cm^2 flasks. Each flask was washed with 20 ml PBS, and treated with 3 ml trypsin-EDTA at 37° C. for 3-5 minutes, until cells detached. Cells were centrifuged for 3 minutes at 195×g, the supernatant was aspirated, and the cells were resuspended in 10 ml media. The cell suspension was diluted to 50,000 cells/ml based on the readings of an electronic cell counter. The suspension was plated 1 ml/well into 24-well tissue culture plates. After a 24 hour incubation in a 5% CO2, 37° C. humidified incubator, the cells were washed with serum free media, supplemented with media containing 0.1% FBS, and incubated for 24 hours. Cells were treated with heparin, HS or FGF2 as appropriate. Heparin was added at 500 ng/ml unless otherwise noted. FGF2 was added at 100 ng/ml unless otherwise specified. Cells were then incubated for 72 hours. Wells were then washed twice with PBS and treated with 0.5 ml trypsin-EDTA/well and incubated for 10 minutes at 37° C. Whole cell number was determined using an electronic cell counter. Data were averaged over three experiments, each consisting of four wells per condition.
For antibody and kinase inhibitor experiments, antibodies and kinase inhibitors were added prior to HSGAGs or FGF2. […]
To produce heparin digests, heparin was treated with PBS, heparinase I (hepI), or hepIII for 30 minutes, and boiled for 30 prior to addition to cells. Digestion was verified and quantified by UV spectroscopy at 232 nm (27). […]
A preliminary screen was performed on PC-3 cells by proliferation assay using the nine polymers described at polymer:heparin (w/w) ratios of 10:1, 20:1, 30:1, 40:1, and 60:1. The three best formulations (polymer and ratio) were selected and analyzed further. […] In vitro assessment of polymer activity was measured by proliferation assay with a heparin concentration of 1 μg/ml. […]

Daudi cells = test: Whole cell proliferation assay; type: cell-based, human; conditions: for direct effect of kinase inhibitor on Daudi whole cell number: FBS-deficient media, 50 μM LY294002, 20 μM PD98059, or 1 μM SB203580
Protocol: For proliferation assays using Daudi cells, cells were collected from 75 cm^2 flasks, washed three times with FBS-deficient media or proliferation media, and resuspended into 10 ml of the same media. Cells were diluted to 1×10^5 cells/ml based on the reading of an electronic cell counter, and plated 1 ml/well in 24-well plates. Wells were treated with PBS, heparin, A5, or A5-heparin conjugate in 10 μl volumes, and incubated for 72 hours at 37° C., 5% CO2. A5-heparin conjugates were additionally supplemented with 50 μM LY294002, 20 μM PD98059, or 1 μM SB203580, 50 mM sodium chlorate, or 10 ng/ml FGF2, as appropriate. Whole cell number was converted to a percent growth relative to PBS treatment. Proliferation assays on NFS-1.0 C-1 and J.CaM1.6 cells were performed as described for Daudi cells.
To probe the role of sulfation patterns and fine structure in inducing the effects of A5-heparin conjugates, heparin was partially digested with heparinases prior to conjugation. Heparin was diluted to 20 μg/ml in PBS and incubated with 5 mU/ml hepI or hepIII or an equivalent volume of PBS for 30 minutes. Digestion was confirmed by UV spectroscopy at 232 nm. Digested heparin was subsequently conjugated with A5 as described. A5 binding to the heparin fragments was confirmed using an Azure A competition assay as previously described. Daudi cells, plated as described at 1×10^5 cells/ml in 24-well plates, 1 ml/well, were treated with conjugates at a heparin concentration of 1 μg/ml or an equivalent volume of PBS. After incubating for 72 hours at 37° C., 5% CO2, the resultant whole cell count was determined by electronic cell counter, and data were converted to a percent growth relative to Daudi treated with PBS alone.
To examine the effects of protamine sulfate and heparinases on Daudi growth, cells were collected from 75 cm^2 flasks, pelletted, and resuspended into 10 ml of propagation media. Cells were diluted to 1×10^5 cells/ml based on the reading of an electronic cell counter, and plated 1 ml/well in 24-well plates. Protamine sulfate was added between 1 and 100,000 ng/ml. HepI and hepIII were added between 0.5 and 500 μU/ml for 24, 48, or 72 hours. Whole cell counts from heparinase assays were converted to percent reduction in whole cell number relative to untreated.

[2] = test system: phospho-Erk1/2 in PC-3 cells; test: Whole cell ELISA; type: cell-based, human; conditions: 10 ng/ml FGF2; 5, 15, or 60 minutes
Protocol: (§1) ELISA was performed on whole cells to determine a quantifiable relative level of kinase activity. PC-3 cells were grown until confluence in 75 cm^2 flasks. Each flask was washed with 20 ml PBS, and treated with 3 ml trypsin-EDTA at 37° C. for 3-5 minutes, until cells detached. Cells were centrifuged for 3 min at 195×g. The supernatant was aspirated, and the cells were resuspended in 10 ml media. The cell density was measured using an electronic cell counter, and the suspension was diluted to 50,000 cells/ml. 100 mm dishes were supplemented with 10 ml cell suspension per dish. After a 24 hour incubation the media was aspirated, the dishes washed with serum free media, and the cells supplemented with media containing 0.1% FBS and incubated for 24 hours. Dishes were treated with PBS, 10 ng/ml FGF2, or 500 ng/ml heparin for 5, 15, or 60 minutes. Media was then aspirated, the cells were washed with 10 ml PBS, and each dish was treated with 5 ml Trizol reagent. Cell extract was added to 96-well plates previously incubated for 1 hour with primary antibodies to Erk1, Erk2 or phospho-Erk1/2. […] The reaction was quenched with 1 M HCl, and the plates were analyzed using a UV plate reader at 450 nm. Data were quantified by comparing to a standardized curve with varying concentrations of untreated cells.

Erk1, Erk2 in PC-3 cells = test: Whole cell ELISA; type: cell-based, human; conditions: 10 ng/ml FGF2 or 500 ng/ml heparin; 5, 15, or 60 minutes
Protocol: as §1

B16-F10 cells = test: Whole cell proliferation assay; type: cell-based, mouse; conditions: 10 ng/ml FGF2
Protocol: Adhesion cells (B16-F10, B16-BL6, SMCs, BAECs, NIH 3T3, SK-ES-1, Panc-1, and SW-1088) were seeded in 24-well plates at 1 ml/well as well as in 6-well plates at 3 ml/well, both at a density of 5×10^4 cells/ml. The plates were incubated for 24 hours at 37° C., 5% CO2. The cells were then washed with PBS and supplemented with media as appropriate. Cells were treated with PBS, heparin, polymer, or polymer-heparin conjugate, in 10 μl quantities at appropriate concentrations. Cells were incubated at 37° C., 5% CO2 for 72 hours, after which, each well was treated with 500 μl (24 well plates) or 1 ml (6 well plates) trypsin-EDTA for 5-15 minutes at room temperature, after which 400 μl was used to count the cell number with an electronic cell counter. […] Panc-1 cells were only tested in 10% FBS. Effects of conjugate were normalized to co-treatment without conjugate.
B16-F10 cells were grown until confluent, washed with PBS, treated with 3 ml trypsin-EDTA per 75 cm^2 tissue culture flask at 37° C. for 3-5 min, pelleted, and resuspended in FBS-deficient media. Cell concentration was determined with an electronic cell counter. […] Cells were treated with PBS, heparin, A5, or A5-heparin conjugate, added in 10 μl quantities, to yield a polymer concentration of 20 μg/ml and a heparin concentration of 1 μg/ml. […]

Chain of UniProt P11362 (P11362 22-822): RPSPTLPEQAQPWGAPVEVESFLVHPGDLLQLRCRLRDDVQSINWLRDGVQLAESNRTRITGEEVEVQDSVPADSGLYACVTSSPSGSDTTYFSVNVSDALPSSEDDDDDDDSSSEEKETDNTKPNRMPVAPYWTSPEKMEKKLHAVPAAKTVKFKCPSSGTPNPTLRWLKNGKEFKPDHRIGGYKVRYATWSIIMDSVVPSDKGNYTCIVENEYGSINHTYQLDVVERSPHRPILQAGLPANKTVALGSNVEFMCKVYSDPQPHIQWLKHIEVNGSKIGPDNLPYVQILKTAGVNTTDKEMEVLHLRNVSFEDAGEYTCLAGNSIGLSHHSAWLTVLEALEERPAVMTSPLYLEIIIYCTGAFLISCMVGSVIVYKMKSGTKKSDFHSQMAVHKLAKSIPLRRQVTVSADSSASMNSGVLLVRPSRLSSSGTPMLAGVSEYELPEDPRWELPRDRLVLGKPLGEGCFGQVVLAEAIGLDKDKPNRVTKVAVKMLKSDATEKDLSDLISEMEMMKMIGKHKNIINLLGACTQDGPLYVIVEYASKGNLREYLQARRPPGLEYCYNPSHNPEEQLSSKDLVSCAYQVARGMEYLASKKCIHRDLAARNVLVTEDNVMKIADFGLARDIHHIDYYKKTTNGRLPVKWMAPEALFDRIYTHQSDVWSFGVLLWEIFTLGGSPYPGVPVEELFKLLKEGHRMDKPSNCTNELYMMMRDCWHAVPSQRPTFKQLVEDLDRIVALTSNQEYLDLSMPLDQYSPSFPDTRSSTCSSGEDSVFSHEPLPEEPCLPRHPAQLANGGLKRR

increase in proliferation of PC-3 cells at 100 ng/ml FGF2 [1]: 15%
upregulation of phospho-Erk1/2 in PC-3 cells (whole cell ELISA) [1]: 2 to 3 fold
Molecule: Recombinant human FGF2 (from UniProt P09038 135-288) (ligand)

Molecule: N#CC(=C(/N)Sc1ccccc1N)/C(C#N)=C(/N)Sc1ccccc1N [U0126]
effect of kinase inhibitor on heparin-mediated growth inhibition (PC-3 cells): eliminate the ability of heparin to inhibit PC-3 growth; also recorded: prevented heparin-mediated growth inhibition

Molecule: protamine sulfate
reduction in whole cell number (Daudi cells; protamine sulfate 1×10^5 ng/ml, media with 10% FBS, three days): 12.9±2.8%
effect on whole cell number (Daudi cells; protamine sulfate concentrations less than 1×10^5 ng/ml, 10% FBS): no effect

Molecule: COc1cccc(-c2cc(=O)c3ccccc3o2)c1N [PD98059]
effect of kinase inhibitor on heparin-mediated growth inhibition (PC-3 cells): eliminate the ability of heparin to inhibit PC-3 growth; also recorded: prevented heparin-mediated growth inhibition
direct effect of kinase inhibitor on Daudi whole cell number (Daudi cells): neither inhibition of PI3K with LY294002 (p>0.39) nor inhibition of Erk and Mek with PD98059 (p>0.64) had a direct effect

Molecule: C[S+]([O-])c1ccc(-c2nc(-c3ccncc3)c(-c3ccc(F)cc3)[nH]2)cc1 (stereo not drawn) [SB203580]
effect of kinase inhibitor on heparin-mediated growth inhibition (PC-3 cells): did not eliminate the effect of heparin; also recorded: had no effect
direct effect of kinase inhibitor on Daudi whole cell number (Daudi cells): caused a significant reduction

Molecule: FGF2: Recombinant human FGF2
upregulation of phospho-Erk1/2 [2]: 2-3 fold
Erk1 or Erk2 levels (Erk1, Erk2 in PC-3 cells): no significant effect
increase in proliferation (whole cell number) (PC-3 cells; 100 ng/ml FGF2): ~15% and 15.6±3.1%
proliferation (PC-3 cells; FGF2 doses of 50 ng/ml and lower): did not promote significant proliferation
inhibition of cell number by FGF2 alone (B16-F10 cells): 26.28±7.23%
effect on Daudi proliferation (Daudi cells; 10 ng/ml FGF2): did not affect Daudi proliferation
